The values that follow come from PubChem BioAssay AID1117337 (Cheminformatics & Chemogenomics Research Group (CCRG), …, 2015).

The source made the active and inactive calls. How the calls were made is not given here.

For the experiment, the system named is ADSC/ECFC co-culture, VEGF-stimulated, CD31 tube area. The experiment is described as follows: inhibition of endothelial tube formation, dose response, imaging, VEGF stimulation, CD31 staining, tube area, IC50 (AID 1117337).
As usually defined, the IC50 is the concentration that gives 50% inhibition. Regarding `Clc1ccccc1C(c1ccccc1)(c1ccccc1)n1ccnc1`, the half-inhibitory concentration (IC50) is 3.04 µM. For the compound `Cc1c(C)c2c(c(C)c1O)CC[C@@](C)(CCC[C@H](C)CCC[C@H](C)CCCC(C)C)O2`, the IC50 is > 10 µM (inactive).

With `CCCCCCCCCCCCCC[N+](C)(C)C`, the IC50 is 1.9 µM. For the compound `Oc1ccc(Cl)cc1Cc1cc(Cl)ccc1O`, the IC50 is 2.32 µM. The result for `COC(=O)C(Cl)C(=O)OC` reads > 10 µM (inactive); that for `CCCCCCCCCCCC[N+](C)(C)CCOc1ccccc1`, 3.38 µM.

`Cc1cccc(Nc2cc(Cl)nc(SCC(=O)O)n2)c1C`: the IC50 is > 10 µM (inactive). For the compound `C[C@@]12C(=O)OC(=O)[C@]1(C)C1CCC2O1`, the IC50 was 1.23 µM. In the case of `COC(=O)c1ccccc1C(=O)OC`, the IC50 was > 10 µM (inactive). Consider `CN1CCCC(CC2c3ccccc3Sc3ccccc32)C1` (stereo not drawn), for which the IC50 was 8.68 µM (inactive).

With `CCC(C)n1ncn(-c2ccc(N3CCN(c4ccc(OC[C@H]5CO[C@](Cn6cncn6)(c6ccc(Cl)cc6Cl)O5)cc4)CC3)cc2)c1=O` (stereo partly drawn), the IC50 was 1.55 µM.

For `Cc1cc(O)c2ccccc2c1O`, the IC50 was 4.89 µM.

Regarding `O=[N+]([O-])C(Br)(CO)CO`, the IC50 was > 10 µM (inactive). The result for `CCCCCCCC/C=C\CCCCCCCCN` reads > 10 µM (inactive); that for `COc1cc([C@@H]2c3cc4c(cc3[C@H](O)[C@H]3COC(=O)[C@H]23)OCO4)cc(OC)c1OC`, 0.0081 µM; that for `Oc1ccc(O)cc1`, > 10 µM (inactive). The result for `CC(C)(C)c1ccc(C(O)CCCN2CCC(C(O)(c3ccccc3)c3ccccc3)CC2)cc1` (stereo not drawn) reads 3.25 µM; that for `ClC1=C(Cl)C2(Cl)C(CBr)CC1(Cl)C2(Cl)Cl` (stereo not drawn), > 10 µM (inactive); that for `COc1ccccc1N1CCN(CC(O)COc2cc(OC)c(OC)c(OC)c2)CC1` (stereo not drawn), > 10 µM (inactive). As to `OC[C@H]1O[C@@H](n2cnc3c(=S)nc[nH]c32)[C@H](O)[C@@H]1O`, the IC50 was 1.42 µM. The result for `O=C(OCc1ccccc1)c1cccnc1` reads > 10 µM (inactive); that for `C[C@H](O)CN(C)C`, > 10 µM (inactive). Regarding `CCCCCCOC(=O)c1cccnc1`, the IC50 was > 10 µM (inactive). `Cc1ccc(O)cc1`: the IC50 was > 10 µM (inactive).

In the case of `CSc1ccc2c(c1)N(CCC1CCCCN1C)c1ccccc1S2` (stereo not drawn), the IC50 was > 10 µM (inactive). Take `COc1cc(S(N)(=O)=O)cc(C(=O)O)c1OC`: the IC50 is > 10 µM (inactive). For `Clc1ccc(Nc2nnc(Cc3ccncc3)c3ccccc23)cc1`, the IC50 is 0.111 µM. The result for `Cc1c(C(=O)NN2CCCCC2)nn(-c2ccc(Cl)cc2Cl)c1-c1ccc(Cl)cc1` reads > 10 µM (inactive); that for `C=C(C)[C@H]1Cc2c(ccc3c2O[C@@H]2COc4cc(OC)c(OC)cc4[C@@H]2C3=O)O1`, 0.0257 µM. The result for `Oc1c(Br)cc(Br)c2cccnc12` reads > 10 µM (inactive). The result for `CC[C@]12CCCN3CCc4c(n(c5ccccc45)C(=O)C1)[C@@H]32` reads > 10 µM (inactive).

With `COc1cccc2c1C(=O)c1c(O)c3c(c(O)c1C2=O)C[C@@](O)(C(=O)CO)C[C@@H]3O[C@H]1C[C@H](N)[C@H](O)[C@H](C)O1`, the IC50 is 0.0429 µM. The result for `Cc1cc(OCCOCC[N+](C)(C)Cc2ccccc2)ccc1C(C)(C)CC(C)(C)C` reads > 10 µM (inactive); that for `CCN(CC)C(=O)c1cccnc1`, > 10 µM (inactive); that for `Oc1c(I)cc(I)c2cccnc12`, 2.39 µM.

For the compound `C[n+]1cc2c3c(ccc2c2ccc4cc5c(cc4c21)OCO5)OCO3`, the IC50 is 0.537 µM. Take `COC(=O)Nc1nc2ccc(C(=O)C3CC3)cc2[nH]1`: the IC50 was 1.19 µM. The result for `COC(=O)C1=C(C)NC(C)=C(C(=O)OCCN2CCN(C(c3ccccc3)c3ccccc3)CC2)C1c1cccc([N+](=O)[O-])c1` (stereo not drawn) reads > 10 µM (inactive). In the case of `COc1ccc2c(c1)c1c3n2CCN(C)C3=NCC1`, the IC50 is > 10 µM (inactive).

Turning to `O=[N+]([O-])c1cc(I)c(O)c(I)c1`, the IC50 was > 10 µM (inactive). As for `C/C(=N\O)[C@@H](C)NCC(C)(C)CN[C@H](C)/C(C)=N/O`, the IC50 is > 10 µM (inactive). Turning to `CC(C)CCCC(C)NCCC(C)C` (stereo not drawn), the IC50 was > 10 µM (inactive). Regarding `CCCCC(CC)CN=C(N)NC(N)=NCCCCCCN=C(N)NC(N)=NCC(CC)CCCC` (stereo not drawn), the IC50 was 0.408 µM.

On to `OCCN1CCN(CCCN2c3ccccc3Sc3ccc(Cl)cc32)CC1`, for which the IC50 is > 10 µM (inactive). The result for `CC(=O)Oc1cccc2c1C(=O)c1c(OC(C)=O)cc(C(=O)O)cc1C2=O` reads > 10 µM (inactive); that for `NC(=O)n1c(O)c(C(=O)c2cccs2)c2cc(Cl)ccc21`, > 10 µM (inactive).

For the compound `O[C@@H](CNC[C@H](O)[C@H]1CCc2cc(F)ccc2O1)[C@@H]1CCc2cc(F)ccc2O1`, the IC50 was > 10 µM (inactive).

As to `O=C(NOCC1CC1)c1ccc(F)c(F)c1Nc1ccc(I)cc1Cl`, the IC50 was 0.368 µM.

For the compound `c1ccc2c(c1)Sc1ccccc1N2CC1CN2CCC1CC2` (stereo not drawn), the IC50 was 9.44 µM (inactive). The result for `COc1cc(NCc2ccc3nc(N)nc(N)c3c2C)cc(OC)c1OC` reads 4.42 µM; that for `CCN1CCC[C@H]1CNC(=O)c1c(OC)ccc(Br)c1OC`, > 10 µM (inactive).

Take `COC(=O)Nc1nc2ccc(C(=O)c3cccs3)cc2[nH]1`: the IC50 was 0.102 µM. The result for `CC(COc1ccccc1)NN` (stereo not drawn) reads > 10 µM (inactive); that for `CC(C)C[C@H](NC(=O)[C@H](CCc1ccccc1)NC(=O)CN1CCOCC1)C(=O)N[C@@H](Cc1ccccc1)C(=O)N[C@@H](CC(C)C)C(=O)[C@@]1(C)CO1`, 0.0204 µM. The result for `COc1ccc(/C=N/NC(=O)c2ccncc2)cc1OC` reads > 10 µM (inactive); that for `CCCCC[C@@H](O)CC[C@H]1[C@@H]2Cc3cccc(OCC(=O)O)c3C[C@@H]2C[C@@H]1O`, > 10 µM (inactive).

For `Clc1cc(Cl)c(OCC#CI)cc1Cl`, the IC50 was > 10 µM (inactive).

Consider `CN(C)c1ccc(C(=C2C=CC(=[N+](C)C)C=C2)c2ccccc2)cc1`, for which the IC50 is 0.0605 µM. With `CCCCCCCCCCOCC(O)CN` (stereo not drawn), the IC50 was 6.55 µM (inactive). Take `CC[N+](CC)(CC)CCOc1ccc(/C=C/c2ccccc2)cc1`: the IC50 is > 10 µM (inactive). As for `Cc1cc(-c2ccc(N=Nc3c(S(=O)(=O)O)cc4cc(S(=O)(=O)O)cc(N)c4c3O)c(C)c2)ccc1N=Nc1c(S(=O)(=O)O)cc2cc(S(=O)(=O)O)cc(N)c2c1O`, the IC50 was > 10 µM (inactive). Consider `COCC(=O)O[C@]1(CCN(C)CCCc2nc3ccccc3[nH]2)CCc2cc(F)ccc2[C@@H]1C(C)C`, for which the IC50 was > 10 µM (inactive).

As for `OC[C@@H](O)[C@H](O)[C@H](O)[C@@H](O)CO`, the IC50 was > 10 µM (inactive). Regarding `CNS(=O)(=O)CCc1ccc2[nH]cc(C3CCN(C)CC3)c2c1`, the IC50 is > 10 µM (inactive). Regarding `CC(=O)[O][Hg][c]1ccccc1`, the IC50 is 0.53 µM.

On to `O=C(CCN1CCC(c2ccccc2)C1)c1ccc2c(c1)OCCO2` (stereo not drawn), for which the IC50 was > 10 µM (inactive). With `CCCCCCCCCCCCCCCCCCCCCC(=O)Nc1ccn([C@@H]2O[C@H](CO)[C@@H](O)[C@H]2O)c(=O)n1`, the IC50 is > 10 µM (inactive).

As to `O=c1[nH]c(=O)n([C@H]2C[C@H](O)[C@@H](CO)O2)cc1Br`, the 50% inhibitory concentration (IC50) is 3.85 µM. With `CCCCCCC[N+](CC)(CC)CCCCc1ccc(Cl)cc1`, the IC50 is 6.34 µM (inactive). With `CC(C)(C)C1CCC(CC2=C(O)c3ccccc3C(=O)C2=O)CC1` (stereo not drawn), the IC50 was 1.96 µM. The result for `C[C@H]1O[C@@H](O[C@H]2[C@@H](O)C[C@H](O[C@H]3[C@@H](O)C[C@H](O[C@H]4CC[C@@]5(C)[C@H](CC[C@@H]6[C@@H]5CC[C@]5(C)[C@@H](C7=CC(=O)OC7)CC[C@]65O)C4)O[C@@H]3C)O[C@@H]2C)C[C@H](O)[C@@H]1O` reads 0.011 µM; that for `Nc1nc(F)nc2c1ncn2[C@@H]1O[C@H](CO)[C@@H](O)[C@@H]1O`, 8.45 µM (inactive). The result for `COCc1c(C(C)C)nc(C(C)C)c(/C=C/[C@@H](O)C[C@@H](O)CC(=O)O)c1-c1ccc(F)cc1` reads 0.0894 µM.
